Assay results published in US10588317B2, “Isoxazoline-substituted benzamides and analogues as insecticides” (priority 2015, dated 2020).

Assays:
Format in all cases: in vivo
Diabrotica balteata = Diabrotica balteata (corn root worm), sprayed maize sprouts; conditions: 96 h, application rate 200 ppm, L2 larvae, 4 days after infestation, read-out: effect in at least one of the two categories (mortality or growth inhibition)
Summary of the method: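 Maize sprouts on agar sprayed with aqueous dilutions of DMSO stocks, dried, then infested with L2 larvae (6–10 per well). Mortality and growth inhibition scored against untreated controls 4 days after infestation, at 200 ppm application rate.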

Tetranychus urticae = Tetranychus urticae (two-spotted spider mite): feeding/contact activity; conditions: 192 h, application rate 200 ppm, mixed population (mobile stages), 8 days after infestation, read-out: mortality
Method: Bean leaf discs on agar in 24-well microtiter plates were sprayed with aqueous test solutions prepared from 10'000 ppm DMSO stock solutions. After drying the leaf discs were infested with a mite population of mixed ages. The samples were assessed for mortality on mixed population (mobile stages) 8 days after infestation.

Thrips tabaci = Thrips tabaci (onion thrips): feeding/contact activity; conditions: 144 h, application rate 200 ppm, Thrips population of mixed ages, 6 days after infestation, read-out: mortality
Method: Sunflower leaf discs were placed on agar in 24-well microtiter plates and sprayed with aqueous test solutions prepared from 10'000 ppm DMSO stock solutions. After drying the leaf discs were infested with a Thrips population of mixed ages. The samples were assessed for mortality 6 days after infestation.

Spodoptera littoralis [1] = assay: Spodoptera littoralis (Egyptian cotton leaf worm), uptake by lettuce roots from agar; conditions: 144 h, read-out: effect in at least one of the three categories (mortality, anti-feeding, or growth inhibition);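 also: 12.5 ppm test rate in agar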
Summary of the method: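 Compound from 10'000 ppm DMSO stocks was mixed into agar, and lettuce grew on it for 7 days to take it up via roots. Cut leaves were infested with Spodoptera eggs; mortality, anti-feedant effect and growth inhibition scored 6 days later versus untreated samples.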

Plutella xylostella = Plutella xylostella (diamond back moth), artificial diet; conditions: 120 h, application rate 200 ppm, L2 larvae, 5 days after infestation, read-out: effect in at least one of the two categories (mortality or growth inhibition)
Summary of the method: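 Artificial diet in 24-well plates treated with aqueous test solutions made from 10'000 ppm DMSO stocks, dried, then infested with L2 larvae (10 to 15 per well). Mortality and growth inhibition scored against untreated samples 5 days after infestation; activity cut-off at least 80% in either category at 200 ppm.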

Myzus persicae = Myzus persicae (green peach aphid): feeding/contact activity; conditions: 144 h, application rate 200 ppm, aphid population of mixed ages, 6 days after infestation, read-out: mortality
Method: Sunflower leaf discs were placed onto agar in a 24-well microtiter plate and sprayed with aqueous test solutions prepared from 10'000 ppm DMSO stock solutions. After drying, the leaf discs were infested with an aphid population of mixed ages. The samples were assessed for mortality 6 days after infestation.

Euschistus heros = Euschistus heros (neotropical brown stink bug), sprayed soybean leaves; conditions: 120 h, application rate 200 ppm, N2 nymphs, 5 days after infestation, read-out: effect in at least one of the two categories (mortality or growth inhibition)
Summary of the method: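 Soybean leaves on agar sprayed with aqueous dilutions of DMSO stocks, dried, then infested with N2 nymphs. Mortality and growth inhibition scored against untreated samples 5 days after infestation; application rate 200 ppm.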

Spodoptera littoralis [2] = assay: Spodoptera littoralis (Egyptian cotton leaf worm), sprayed cotton leaf discs; conditions: foliar, 72 h, application rate 200 ppm, L1 larvae, 3 days after infestation, read-out: control (mortality, anti-feeding effect, growth inhibition)
Summary of the method: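 Cotton leaf discs on agar sprayed with aqueous test solutions made from 10'000 ppm DMSO stock; after drying, infested with five L1 larvae. Mortality, anti-feeding and growth inhibition scored versus untreated samples 3 days after infestation; control counted when any category exceeds untreated.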

Cc1cc(C2=NO[C@@](c3cc(Cl)c(F)c(Cl)c3)(C(F)(F)F)C2)ccc1C(=O)NC1CON(S(=O)(=O)NC(C)(C)C)C1 (stereo partly shown) [Compound A97]
≥ 80%: percent effect (mortality or growth inhibition) at 200 ppm (Diabrotica balteata) | mortality at 200 ppm (Tetranychus urticae) | mortality at 200 ppm (Thrips tabaci) | percent control (mortality, anti-feedant effect or growth inhibition) at 12.5 ppm (Spodoptera littoralis [1]) | percent effect (mortality or growth inhibition) at 200 ppm (Plutella xylostella) | mortality at 200 ppm (Myzus persicae) | percent effect (mortality or growth inhibition) at 200 ppm (Euschistus heros) | mortality at 200 ppm (Spodoptera littoralis [2])

Cc1cc(C2=NO[C@@](c3cc(Cl)c(Cl)c(Cl)c3)(C(F)(F)F)C2)ccc1C(=O)NC1CON(S(N)(=O)=O)C1 (stereo partly shown) [Compound A35]
≥ 80%: percent effect (mortality or growth inhibition) at 200 ppm (Diabrotica balteata) | mortality at 200 ppm (Tetranychus urticae) | mortality at 200 ppm (Thrips tabaci) | percent control (mortality, anti-feedant effect or growth inhibition) at 12.5 ppm (Spodoptera littoralis [1]) | percent effect (mortality or growth inhibition) at 200 ppm (Plutella xylostella) | mortality at 200 ppm (Myzus persicae) | percent effect (mortality or growth inhibition) at 200 ppm (Euschistus heros) | mortality at 200 ppm (Spodoptera littoralis [2])

CCS(=O)(=O)N1CC(NC(=O)c2ccc(C3=NO[C@@](c4cc(Cl)c(Cl)c(Cl)c4)(C(F)(F)F)C3)cc2C)CO1 (stereo partly drawn) [Compound A27, N-(2-ethylsulfonylisoxazolidin-4-yl)-2-methyl-4-[(5S)-5-(3,4,5-trichlorophenyl)-5-(trifluoromethyl)-4H-isoxazol-3-yl]benzamide]
≥ 80%: percent effect (mortality or growth inhibition) at 200 ppm (Diabrotica balteata) | mortality at 200 ppm (Tetranychus urticae) | mortality at 200 ppm (Thrips tabaci) | percent control (mortality, anti-feedant effect or growth inhibition) at 12.5 ppm (Spodoptera littoralis [1]) | percent effect (mortality or growth inhibition) at 200 ppm (Plutella xylostella) | mortality at 200 ppm (Myzus persicae) | percent effect (mortality or growth inhibition) at 200 ppm (Euschistus heros) | mortality at 200 ppm (Spodoptera littoralis [2])

CCN(C)S(=O)(=O)N1C[C@@H](NC(=O)c2ccc(C3=NO[C@@](c4cc(Cl)cc(Cl)c4)(C(F)(F)F)C3)cc2C)CO1 [Compound A142]
≥ 80%: percent effect (mortality or growth inhibition) at 200 ppm (Diabrotica balteata) | mortality at 200 ppm (Tetranychus urticae) | mortality at 200 ppm (Thrips tabaci) | percent control (mortality, anti-feedant effect or growth inhibition) at 12.5 ppm (Spodoptera littoralis [1]) | percent effect (mortality or growth inhibition) at 200 ppm (Plutella xylostella) | mortality at 200 ppm (Myzus persicae) | percent effect (mortality or growth inhibition) at 200 ppm (Euschistus heros) | mortality at 200 ppm (Spodoptera littoralis [2])

CNS(=O)(=O)N1C[C@@H](NC(=O)c2ccc(C3=NO[C@@](c4cc(Cl)c(Cl)c(Cl)c4)(C(F)(F)F)C3)cc2C)CO1 [Compound A67, 2-methyl-N-[(4R)-2-(methylsulfamoyl)isoxazolidin-4-yl]-4-[(5S)-5-(3,4,5-trichlorophenyl)-5-(trifluoromethyl)-4H-isoxazol-3-yl]benzamide]
≥ 80%: percent effect (mortality or growth inhibition) at 200 ppm (Diabrotica balteata) | mortality at 200 ppm (Tetranychus urticae) | mortality at 200 ppm (Thrips tabaci) | percent control (mortality, anti-feedant effect or growth inhibition) at 12.5 ppm (Spodoptera littoralis [1]) | percent effect (mortality or growth inhibition) at 200 ppm (Plutella xylostella) | mortality at 200 ppm (Myzus persicae) | percent effect (mortality or growth inhibition) at 200 ppm (Euschistus heros) | mortality at 200 ppm (Spodoptera littoralis [2])

CCS(=O)(=O)N1C[C@@H](NC(=O)c2ccc(C3=NO[C@@](c4cc(Cl)c(Cl)c(Cl)c4)(C(F)(F)F)C3)cc2C)CO1 [Compound A118]
≥ 80%: percent effect (mortality or growth inhibition) at 200 ppm (Diabrotica balteata) | mortality at 200 ppm (Tetranychus urticae) | mortality at 200 ppm (Thrips tabaci) | percent control (mortality, anti-feedant effect or growth inhibition) at 12.5 ppm (Spodoptera littoralis [1]) | percent effect (mortality or growth inhibition) at 200 ppm (Plutella xylostella) | mortality at 200 ppm (Myzus persicae) | percent effect (mortality or growth inhibition) at 200 ppm (Euschistus heros) | mortality at 200 ppm (Spodoptera littoralis [2])

Cc1cc(C2=NO[C@@](c3cc(Cl)c(F)c(Cl)c3)(C(F)(F)F)C2)ccc1C(=O)N[C@@H]1CON(S(=O)(=O)N(C)C)C1 (single isomer, unassigned) [Compound A34]
≥ 80%: percent effect (mortality or growth inhibition) at 200 ppm (Diabrotica balteata) | mortality at 200 ppm (Tetranychus urticae) | mortality at 200 ppm (Thrips tabaci) | percent control (mortality, anti-feedant effect or growth inhibition) at 12.5 ppm (Spodoptera littoralis [1]) | percent effect (mortality or growth inhibition) at 200 ppm (Plutella xylostella) | mortality at 200 ppm (Myzus persicae) | percent effect (mortality or growth inhibition) at 200 ppm (Euschistus heros) | mortality at 200 ppm (Spodoptera littoralis [2])

CCS(=O)(=O)N1C[C@@H](NC(=O)c2ccc(C3=NO[C@@](c4cc(Cl)c(F)c(Cl)c4)(C(F)(F)F)C3)cc2Cl)CO1 [Compound A146]
≥ 80%: percent effect (mortality or growth inhibition) at 200 ppm (Diabrotica balteata) | mortality at 200 ppm (Tetranychus urticae) | mortality at 200 ppm (Thrips tabaci) | percent control (mortality, anti-feedant effect or growth inhibition) at 12.5 ppm (Spodoptera littoralis [1]) | percent effect (mortality or growth inhibition) at 200 ppm (Plutella xylostella) | mortality at 200 ppm (Myzus persicae) | percent effect (mortality or growth inhibition) at 200 ppm (Euschistus heros) | mortality at 200 ppm (Spodoptera littoralis [2])

Cc1cc(C2=NO[C@@](c3cc(Cl)cc(Cl)c3)(C(F)(F)F)C2)ccc1C(=O)N[C@H]1CON(S(C)(=O)=O)C1 [Compound A38]
≥ 80%: percent effect (mortality or growth inhibition) at 200 ppm (Diabrotica balteata) | mortality at 200 ppm (Tetranychus urticae) | mortality at 200 ppm (Thrips tabaci) | percent control (mortality, anti-feedant effect or growth inhibition) at 12.5 ppm (Spodoptera littoralis [1]) | percent effect (mortality or growth inhibition) at 200 ppm (Plutella xylostella) | mortality at 200 ppm (Myzus persicae) | percent effect (mortality or growth inhibition) at 200 ppm (Euschistus heros) | mortality at 200 ppm (Spodoptera littoralis [2])

Cc1cc(C2=NOC(c3cc(C(F)(F)F)cc(C(F)(F)F)c3)(C(F)(F)F)C2)ccc1C(=O)NC1CON(S(C)(=O)=O)C1 (stereo not shown) [Compound A59]
≥ 80%: percent effect (mortality or growth inhibition) at 200 ppm (Diabrotica balteata) | mortality at 200 ppm (Tetranychus urticae) | mortality at 200 ppm (Thrips tabaci) | percent control (mortality, anti-feedant effect or growth inhibition) at 12.5 ppm (Spodoptera littoralis [1]) | percent effect (mortality or growth inhibition) at 200 ppm (Plutella xylostella) | mortality at 200 ppm (Myzus persicae) | percent effect (mortality or growth inhibition) at 200 ppm (Euschistus heros) | mortality at 200 ppm (Spodoptera littoralis [2])

CN(C)S(=O)(=O)N1C[C@@H](NC(=O)c2ccc(C3=NO[C@@](c4cc(Cl)c(F)c(Cl)c4)(C(F)(F)F)C3)cc2Cl)CO1 [Compound A107]
≥ 80%: percent effect (mortality or growth inhibition) at 200 ppm (Diabrotica balteata) | mortality at 200 ppm (Tetranychus urticae) | mortality at 200 ppm (Thrips tabaci) | percent control (mortality, anti-feedant effect or growth inhibition) at 12.5 ppm (Spodoptera littoralis [1]) | percent effect (mortality or growth inhibition) at 200 ppm (Plutella xylostella) | mortality at 200 ppm (Myzus persicae) | percent effect (mortality or growth inhibition) at 200 ppm (Euschistus heros) | mortality at 200 ppm (Spodoptera littoralis [2])
